Assay results from article PMC5762315, “Inhibition of polo-like kinase 4 (PLK4): a new therapeutic option for rhabdoid tumors and pediatric medulloblastoma” (Oncotarget, 2017).
Values joined by “and” are separate entries in the source; they are usually repeats but may differ in a detail not shown here. Identical values can stand only once.

Experiments:
Assay in all cases: LanthaScreen Eu Kinase Binding Assay, panel of 486 biochemical kinase assays
various kinases [1] = molecular target: various kinases (Homo sapiens, UniProt Q9Y572); conditions: kinase RIPK3; LanthaScreen Binding
Chain of various kinases (Homo sapiens, UniProt Q9Y572) (Q9Y572 whole entry): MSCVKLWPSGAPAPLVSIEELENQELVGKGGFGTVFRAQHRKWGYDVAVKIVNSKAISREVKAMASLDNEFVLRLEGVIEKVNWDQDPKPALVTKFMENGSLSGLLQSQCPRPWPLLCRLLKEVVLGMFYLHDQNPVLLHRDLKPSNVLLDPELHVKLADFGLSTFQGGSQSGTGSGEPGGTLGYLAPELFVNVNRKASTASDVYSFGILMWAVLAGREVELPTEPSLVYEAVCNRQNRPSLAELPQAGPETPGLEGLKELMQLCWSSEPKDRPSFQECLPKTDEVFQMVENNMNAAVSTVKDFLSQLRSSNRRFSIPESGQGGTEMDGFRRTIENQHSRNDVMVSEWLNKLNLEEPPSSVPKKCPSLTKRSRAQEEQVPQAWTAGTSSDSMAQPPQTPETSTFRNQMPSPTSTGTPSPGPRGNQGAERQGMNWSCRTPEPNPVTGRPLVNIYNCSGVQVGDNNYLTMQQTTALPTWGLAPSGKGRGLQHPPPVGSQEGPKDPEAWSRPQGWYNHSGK

various kinases [2] = molecular target: various kinases (Homo sapiens, UniProt P30530, R499C); conditions: AXL R499C
various kinases [3] = molecular target: various kinases (Homo sapiens, UniProt Q12866, A708S); conditions: MERTK (cMER) A708S
various kinases [4] = molecular target: various kinases (Homo sapiens, UniProt Q8IVH8); conditions: MAP4K3 (GLK)
various kinases [5] = molecular target: various kinases (Homo sapiens, UniProt Q9UM73, R1275Q); conditions: ALK R1275Q
various kinases [6] = molecular target: various kinases (Homo sapiens, UniProt Q8WXR4); conditions: MYO3B (MYO3 beta)
various kinases [7] = molecular target: various kinases (Homo sapiens, UniProt P30291); conditions: kinase WEE1; LanthaScreen Binding
Chain of various kinases (Homo sapiens, UniProt P30291) (P30291 whole entry): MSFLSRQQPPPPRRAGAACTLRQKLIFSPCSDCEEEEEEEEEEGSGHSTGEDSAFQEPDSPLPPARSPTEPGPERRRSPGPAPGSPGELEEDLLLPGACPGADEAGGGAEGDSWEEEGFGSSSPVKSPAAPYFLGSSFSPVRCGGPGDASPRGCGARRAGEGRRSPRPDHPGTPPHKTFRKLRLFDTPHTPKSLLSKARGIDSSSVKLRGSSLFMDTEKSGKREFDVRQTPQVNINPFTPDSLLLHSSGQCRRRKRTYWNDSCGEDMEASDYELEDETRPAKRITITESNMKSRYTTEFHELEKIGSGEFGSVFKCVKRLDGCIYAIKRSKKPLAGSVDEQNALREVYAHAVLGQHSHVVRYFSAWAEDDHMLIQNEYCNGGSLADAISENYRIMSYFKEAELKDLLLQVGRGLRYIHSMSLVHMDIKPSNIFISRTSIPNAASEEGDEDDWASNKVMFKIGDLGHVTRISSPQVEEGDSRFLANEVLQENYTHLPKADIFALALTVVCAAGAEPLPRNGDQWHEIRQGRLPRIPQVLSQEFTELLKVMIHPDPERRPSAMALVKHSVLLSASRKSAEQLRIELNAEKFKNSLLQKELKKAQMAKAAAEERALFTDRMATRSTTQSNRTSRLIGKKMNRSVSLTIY

various kinases [8] = molecular target: T1, various kinases (Homo sapiens, UniProt P42680); conditions: kinase TEC; LanthaScreen Binding
T1 sequence (P42680 1-631): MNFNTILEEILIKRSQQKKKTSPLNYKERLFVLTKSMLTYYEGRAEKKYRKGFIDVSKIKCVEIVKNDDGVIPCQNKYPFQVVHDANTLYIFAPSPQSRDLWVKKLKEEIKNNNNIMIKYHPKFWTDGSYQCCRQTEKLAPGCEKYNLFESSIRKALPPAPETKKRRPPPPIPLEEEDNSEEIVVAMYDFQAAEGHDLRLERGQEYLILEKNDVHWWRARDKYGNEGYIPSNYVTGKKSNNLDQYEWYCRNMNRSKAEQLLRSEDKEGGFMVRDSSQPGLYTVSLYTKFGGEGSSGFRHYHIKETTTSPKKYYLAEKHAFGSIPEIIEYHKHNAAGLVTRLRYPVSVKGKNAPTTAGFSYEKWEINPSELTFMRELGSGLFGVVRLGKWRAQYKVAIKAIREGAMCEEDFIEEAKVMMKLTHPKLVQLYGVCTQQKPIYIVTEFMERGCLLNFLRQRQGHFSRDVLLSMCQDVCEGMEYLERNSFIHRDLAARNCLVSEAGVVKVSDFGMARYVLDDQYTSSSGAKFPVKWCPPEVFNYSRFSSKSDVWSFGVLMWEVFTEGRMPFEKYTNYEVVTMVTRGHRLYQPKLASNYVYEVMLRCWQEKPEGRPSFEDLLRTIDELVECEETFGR

various kinases [9] = molecular target: various kinases (Homo sapiens, UniProt P10721, D816H); conditions: KIT D816H
various kinases [10] = molecular target: various kinases (Homo sapiens, UniProt Q9Y3S1); conditions: kinase WNK2; LanthaScreen Binding
Chain of various kinases (Homo sapiens, UniProt Q9Y3S1) (Q9Y3S1 whole entry): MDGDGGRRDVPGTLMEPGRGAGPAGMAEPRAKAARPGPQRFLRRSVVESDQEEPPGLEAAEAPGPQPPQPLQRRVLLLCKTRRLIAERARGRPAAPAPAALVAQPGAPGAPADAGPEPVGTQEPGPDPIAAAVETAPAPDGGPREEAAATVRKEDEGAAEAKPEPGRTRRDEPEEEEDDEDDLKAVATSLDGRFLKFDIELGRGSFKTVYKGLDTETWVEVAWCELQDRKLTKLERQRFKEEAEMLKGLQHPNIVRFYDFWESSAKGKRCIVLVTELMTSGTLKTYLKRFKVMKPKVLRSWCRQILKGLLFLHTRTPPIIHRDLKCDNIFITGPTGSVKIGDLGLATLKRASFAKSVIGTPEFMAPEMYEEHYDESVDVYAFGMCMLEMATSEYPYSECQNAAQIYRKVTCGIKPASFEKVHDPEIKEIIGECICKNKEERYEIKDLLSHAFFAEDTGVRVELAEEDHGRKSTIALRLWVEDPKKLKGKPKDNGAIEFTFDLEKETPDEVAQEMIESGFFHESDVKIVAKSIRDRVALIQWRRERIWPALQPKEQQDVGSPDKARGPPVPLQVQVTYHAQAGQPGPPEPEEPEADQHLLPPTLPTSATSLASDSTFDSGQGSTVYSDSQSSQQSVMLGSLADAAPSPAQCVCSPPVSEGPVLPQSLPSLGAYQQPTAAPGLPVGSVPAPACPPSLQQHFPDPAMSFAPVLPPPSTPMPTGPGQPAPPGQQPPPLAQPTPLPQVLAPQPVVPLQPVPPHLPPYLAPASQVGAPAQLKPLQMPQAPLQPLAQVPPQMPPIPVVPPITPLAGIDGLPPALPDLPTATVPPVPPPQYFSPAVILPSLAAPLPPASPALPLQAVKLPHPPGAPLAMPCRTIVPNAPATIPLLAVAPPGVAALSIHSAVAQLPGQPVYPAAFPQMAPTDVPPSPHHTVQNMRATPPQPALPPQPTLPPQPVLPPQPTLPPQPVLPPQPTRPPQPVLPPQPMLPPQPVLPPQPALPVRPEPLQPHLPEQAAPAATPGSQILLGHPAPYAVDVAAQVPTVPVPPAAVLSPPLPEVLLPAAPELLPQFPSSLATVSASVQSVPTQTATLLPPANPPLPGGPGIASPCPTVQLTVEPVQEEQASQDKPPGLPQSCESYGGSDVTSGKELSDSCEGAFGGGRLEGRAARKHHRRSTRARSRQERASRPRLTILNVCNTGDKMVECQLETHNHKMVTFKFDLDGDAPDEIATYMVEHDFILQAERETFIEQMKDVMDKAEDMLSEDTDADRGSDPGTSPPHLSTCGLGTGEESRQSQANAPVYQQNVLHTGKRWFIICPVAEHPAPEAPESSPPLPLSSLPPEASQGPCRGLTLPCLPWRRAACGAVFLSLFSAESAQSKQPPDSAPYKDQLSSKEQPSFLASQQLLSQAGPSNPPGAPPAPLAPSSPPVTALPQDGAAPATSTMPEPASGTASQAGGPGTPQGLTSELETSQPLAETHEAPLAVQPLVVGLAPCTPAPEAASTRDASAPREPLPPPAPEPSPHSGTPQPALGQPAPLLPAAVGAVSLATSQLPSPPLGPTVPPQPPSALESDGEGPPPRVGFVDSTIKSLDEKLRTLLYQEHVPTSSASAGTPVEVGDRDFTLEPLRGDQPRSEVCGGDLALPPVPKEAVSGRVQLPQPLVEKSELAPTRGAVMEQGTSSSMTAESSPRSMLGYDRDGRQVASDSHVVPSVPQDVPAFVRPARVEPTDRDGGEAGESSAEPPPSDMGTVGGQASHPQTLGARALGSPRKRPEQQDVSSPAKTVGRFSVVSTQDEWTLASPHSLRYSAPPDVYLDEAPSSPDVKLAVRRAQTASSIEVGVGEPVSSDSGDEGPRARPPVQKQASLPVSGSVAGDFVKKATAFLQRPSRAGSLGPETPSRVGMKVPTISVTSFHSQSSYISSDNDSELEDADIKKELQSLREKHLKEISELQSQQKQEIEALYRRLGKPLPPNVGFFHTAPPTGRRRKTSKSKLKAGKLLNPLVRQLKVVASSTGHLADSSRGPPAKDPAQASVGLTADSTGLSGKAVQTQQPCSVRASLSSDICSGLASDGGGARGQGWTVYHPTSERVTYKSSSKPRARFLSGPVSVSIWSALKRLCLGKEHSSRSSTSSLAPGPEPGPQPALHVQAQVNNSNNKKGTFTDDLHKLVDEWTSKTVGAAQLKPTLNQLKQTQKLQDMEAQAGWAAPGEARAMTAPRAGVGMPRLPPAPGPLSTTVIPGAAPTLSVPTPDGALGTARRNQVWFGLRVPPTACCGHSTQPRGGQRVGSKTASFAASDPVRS

various kinases [11] = molecular target: various kinases (Homo sapiens, UniProt P57058); conditions: HUNK
various kinases [12] = molecular target: various kinases (Homo sapiens, UniProt Q9BYT3); conditions: kinase STK33; LanthaScreen Binding
Chain of various kinases (Homo sapiens, UniProt Q9BYT3) (Q9BYT3 whole entry): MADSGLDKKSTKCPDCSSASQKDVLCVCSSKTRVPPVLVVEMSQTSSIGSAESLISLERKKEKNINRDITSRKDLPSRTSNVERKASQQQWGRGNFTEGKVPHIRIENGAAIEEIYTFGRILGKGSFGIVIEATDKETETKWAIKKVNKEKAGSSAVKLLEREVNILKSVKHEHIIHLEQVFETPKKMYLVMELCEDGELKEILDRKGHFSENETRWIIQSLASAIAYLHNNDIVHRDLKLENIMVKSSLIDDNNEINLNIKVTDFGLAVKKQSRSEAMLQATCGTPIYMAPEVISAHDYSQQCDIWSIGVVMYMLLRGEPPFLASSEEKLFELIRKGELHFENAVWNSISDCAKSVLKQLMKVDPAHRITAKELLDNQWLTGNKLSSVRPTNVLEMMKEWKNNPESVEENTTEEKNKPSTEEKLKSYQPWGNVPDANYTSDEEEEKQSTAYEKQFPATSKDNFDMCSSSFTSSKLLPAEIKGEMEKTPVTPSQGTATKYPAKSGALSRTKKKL

various kinases [13] = molecular target: various kinases (Homo sapiens, UniProt Q96RR4); conditions: CAMKK2 (CaMKK beta)
Chain of various kinases (Homo sapiens, UniProt Q96RR4) (Q96RR4 whole entry): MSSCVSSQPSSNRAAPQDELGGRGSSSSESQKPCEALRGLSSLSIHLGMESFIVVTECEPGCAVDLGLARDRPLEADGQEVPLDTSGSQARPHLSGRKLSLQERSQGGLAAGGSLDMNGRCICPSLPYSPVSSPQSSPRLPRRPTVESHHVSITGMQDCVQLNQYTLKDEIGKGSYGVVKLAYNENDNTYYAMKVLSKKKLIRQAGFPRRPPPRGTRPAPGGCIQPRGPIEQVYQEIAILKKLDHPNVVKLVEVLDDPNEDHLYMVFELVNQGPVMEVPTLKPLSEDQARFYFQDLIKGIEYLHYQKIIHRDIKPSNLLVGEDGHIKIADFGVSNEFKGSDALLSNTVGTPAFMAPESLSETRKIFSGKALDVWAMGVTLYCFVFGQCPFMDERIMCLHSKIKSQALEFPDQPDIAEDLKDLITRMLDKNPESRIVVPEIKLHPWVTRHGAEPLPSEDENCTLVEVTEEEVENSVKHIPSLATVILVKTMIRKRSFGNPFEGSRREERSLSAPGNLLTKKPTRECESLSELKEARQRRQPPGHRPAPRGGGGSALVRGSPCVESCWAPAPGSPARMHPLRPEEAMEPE

various kinases [14] = molecular target: T2, various kinases (Homo sapiens, UniProt Q9UEE5); conditions: kinase STK17A (DRAK1); LanthaScreen Binding
T2 sequence (Q9UEE5 1-414): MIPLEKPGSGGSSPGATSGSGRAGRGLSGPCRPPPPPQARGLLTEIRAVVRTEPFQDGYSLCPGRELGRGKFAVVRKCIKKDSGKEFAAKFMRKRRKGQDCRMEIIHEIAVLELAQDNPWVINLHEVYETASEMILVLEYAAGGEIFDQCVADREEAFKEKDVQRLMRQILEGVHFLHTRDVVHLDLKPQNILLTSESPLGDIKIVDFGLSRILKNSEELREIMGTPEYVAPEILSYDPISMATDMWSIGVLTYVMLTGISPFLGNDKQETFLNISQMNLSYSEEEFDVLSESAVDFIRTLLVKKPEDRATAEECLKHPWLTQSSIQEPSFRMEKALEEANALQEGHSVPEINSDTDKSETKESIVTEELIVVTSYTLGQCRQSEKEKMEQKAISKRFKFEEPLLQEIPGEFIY

## COc1ccc2c(c1)[C@]1(C[C@H]1c1ccc3c(/C=C/c4ccc(CN5C[C@@H](C)O[C@@H](C)C5)cc4)n[nH]c3c1)C(=O)N2 [CFI-400945]
Various kinases [1]
  % Inhibition Average: 11%
  % Inhibition Duplicate #1: 11%
  % Inhibition Duplicate #2: 11%
Various kinases [2]
  % Inhibition: 11% and 12%
Various kinases [3]
  % Inhibition: 7% and 2%
Various kinases [4]
  % Inhibition: 23% and 19%
Various kinases [5]
  % Inhibition: 65%
  IC50: 444 nM
Various kinases [6]
  % Inhibition: 7% and 6%
Various kinases [7]
  % Inhibition Average: -5%
  % Inhibition Duplicate #1: -7%
  % Inhibition Duplicate #2: -2%
Various kinases [8]
  % Inhibition Average: -1%
  % Inhibition Duplicate #1: 1%
  % Inhibition Duplicate #2: -3%
Various kinases [9]
  % Inhibition: 21% and 20%
Various kinases [10]
  % Inhibition Average: -3%
  % Inhibition Duplicate #1: -6%
  % Inhibition Duplicate #2: 0%
Various kinases [11]
  % Inhibition: 21% and 22%
Various kinases [12]
  % Inhibition Average: -2%
  % Inhibition Duplicate #1: -2%
  % Inhibition Duplicate #2: -2%
Various kinases [13]
  % Inhibition: 33% and 23%
Various kinases [14]
  % Inhibition Average: 19%
  % Inhibition Duplicate #1: 24%
  % Inhibition Duplicate #2: 13%
